Results taken from US20180371076A1, “MATERNAL TH17 CELLS AND PSYCHIATRIC DISORDERS” (New York University, priority 2017, published 2018).
“Also recorded” adds a separate entry of the source.

Columns and labels:
IL-6 = IL-6 ELISA of maternal serum; assay type: in vivo, mouse; settings: poly(I:C) 20 mg/kg i.p. at E12.5, 3 h, vs PBS
Method: (§1) Cell preparation, Flow cytometry, ELISA. Embryos at each implantation site were dissected in ice-cold HBSS containing Ca^2+ and Mg^2+. Myometrium was first peeled off of the decidua and embryos were discarded. Dissected decidual and placental tissues were then minced and enzymatically dissociated in HBSS containing 0.28 Wunsch units (WU)/mL Liberase (Roche) and 30 μg/ml DNase I (Roche) for 30 min at 37° C. with intermittent mixing. Digested tissues were washed in PBS containing 5 mM EDTA and 5% fetal bovine serum and then incubated again in the same buffer for 15 min at 37° C. prior to filtration through a cell strainer. After separation on a discontinuous 40% & 80% Percoll gradient, the mononuclear cell fraction was treated with ACK lysis buffer (Lonza). Mononuclear cells (1×10^6 cells/mL) were stimulated with phorbol 12-myristate 13-acetate (PMA, 50 ng/mL; Sigma), ionomycin (500 ng/mL; Sigma) in T cell media: RPMI 1640 (Invitrogen) supplemented with 10% (v/v) heat-inactivated FBS (Hyclone), 50 U penicillin-streptomycin (Invitrogen), 2 mM glutamine, and 50 μM β-mercaptoethanol. Cell culture supernatant was used for ELISA analyses. For flow cytometry, cells were incubated for 5 h with PMA, ionomycin and GolgiStop (BD). […] For ELISA with sera and placenta/decidua extract, IL-6 (Ebioscience), IL-17a (Biolgened), and IL-10 (BD) were measured according to the manufacturer's protocol. […]

IL-17a [1] = assay: IL-17a secretion by ex vivo cultured mononuclear cells (PMA/ionomycin); assay type: cell-based, mouse; settings: vs PBS
Method: as §1

IL-17a [2] = assay: IL-17a ELISA of maternal sera and placenta/decidua extract; assay type: in vivo, mouse; settings: for maternal serum IL-17a: serum at E14.5-E15.5, vs PBS
Method: Cell preparation, Flow cytometry, ELISA. Embryos at each implantation site were dissected in ice-cold HBSS containing Ca^2+ and Mg^2+. Myometrium was first peeled off of the decidua and embryos were discarded. Dissected decidual and placental tissues were then minced and enzymatically dissociated in HBSS containing 0.28 Wunsch units (WU)/mL Liberase (Roche) and 30 μg/ml DNase I (Roche) for 30 min at 37° C. with intermittent mixing. Digested tissues were washed in PBS containing 5 mM EDTA and 5% fetal bovine serum and then incubated again in the same buffer for 15 min at 37° C. prior to filtration through a cell strainer. After separation on a discontinuous 40% & 80% Percoll gradient, the mononuclear cell fraction was treated with ACK lysis buffer (Lonza). Mononuclear cells (1×10^6 cells/mL) were stimulated with phorbol 12-myristate 13-acetate (PMA, 50 ng/mL; Sigma), ionomycin (500 ng/mL; Sigma) in T cell media: RPMI 1640 (Invitrogen) supplemented with 10% (v/v) heat-inactivated FBS (Hyclone), 50 U penicillin-streptomycin (Invitrogen), 2 mM glutamine, and 50 μM β-mercaptoethanol. Cell culture supernatant was used for ELISA analyses. For flow cytometry, cells were incubated for 5 h with PMA, ionomycin and GolgiStop (BD). Intracellular cytokine staining was performed according to the manufacturer's protocol (Cytofix/Cytoperm buffer set from BD with alexa647-conjugated anti-IL-17a (eBioscience) and PE-conjugated anti-IFN-γ). LSR II (BD Biosciences) and FlowJo software (Tree Star) were used for flow cytometry and analysis. Dead cells were excluded using the Live/Dead fixable aqua dead cell stain kit (Invitrogen). Placenta/decidua extract were prepared by homogenizing samples in Tissue Extraction Reagent I (Invitrogen, FN0071) in the presence of protease inhibitor cocktail (Roche, 11873580001) on ice using pestles. The homogenates were centrifuged at 4° C. at 13,000 rpm for 20 min, and the supernatants were aliquotted and frozen at −80° C. For ELISA with sera and placenta/decidua extract, IL-6 (Ebioscience), IL-17a (Biolgened), and IL-10 (BD) were measured according to the manufacturer's protocol.
Cell preparation, Flow cytometry, ELISA Embryos at each implantation site were dissected in ice-cold HBSS containing Ca2+ and Mg2+ (Gibco). Myometrium was first peeled off of the decidua and embryos were discarded. Dissected decidual and placental tissues were then minced and enzymatically dissociated in HBSS containing 0.28 Wunsch units (WU)/mL Liberase (Roche) and 30 μg/mL DNase I (Roche) for 30 min at 37° C. with intermittent mixing. Digested tissues were washed in PBS containing 5 mM EDTA and 5% fetal bovine serum and then incubated again in the same buffer for 15 min at 37° C. prior to filtration through a cell strainer. After separation on a discontinuous 40% & 80% Percoll gradient, the mononuclear cell fraction was treated with ACK lysis buffer (Lonza). Mononuclear cells (1×10^6 cells/mL) were cultured for 24 h with or without phorbol 12-myristate 13-acetate (PMA, 50 ng/mL; Sigma) and ionomycin (500 ng/mL; Sigma) in T cell media: RPMI 1640 (Invitrogen) supplemented with 10% (v/v) heat-inactivated FBS (Hyclone), 50 U penicillin-streptomycin (Invitrogen), 2 mM glutamine, and 50 μM β-mercaptoethanol. Cell culture supernatant was used for ELISA analyses. Unstimulated cells were used to prepare total RNA for qPCR analyses. For flow cytometry, cells were incubated for 5 h with PMA, ionomycin and GolgiStop (BD). […]

Th17 cells = assay: Flow cytometry of placenta/decidua CD4+ T cells: Th17; assay type: in vivo, mouse; settings: poly(I:C) vs PBS treatment, pregnant dams
Method: (§2) Cell preparation, Flow cytometry, ELISA Embryos at each implantation site were dissected in ice-cold HBSS containing Ca2+ and Mg2+ (Gibco). Myometrium was first peeled off of the decidua and embryos were discarded. Dissected decidual and placental tissues were then minced and enzymatically dissociated in HBSS containing 0.28 Wunsch units (WU)/mL Liberase (Roche) and 30 μg/mL DNase I (Roche) for 30 min at 37° C. with intermittent mixing. Digested tissues were washed in PBS containing 5 mM EDTA and 5% fetal bovine serum and then incubated again in the same buffer for 15 min at 37° C. prior to filtration through a cell strainer. […] Intracellular cytokine staining was performed according to the manufacturer's protocol (Cytofix/Cytoperm buffer set from BD with Pacific Blue-conjugated CD4, FITC or PerCP-Cy5.5-conjugated CD8, APC4 Cy7-conjugated TCR-β, PE-Cy7-conjugated anti-IL-17a, PE-conjugated anti-IFN-γ, PECy7-conjugated anti-CD25 and PE-conjugated Foxp3 (eBioscience). LSR II (BD Biosciences) and FlowJo software (Tree Star) were used for flow cytometry and analysis. Dead cells were excluded using the Live/Dead fixable aqua dead cell stain kit (Invitrogen). For ELISA with sera and placenta/decidua extract, IL-6 (Ebioscience), IL-17a, TNF-α, IL-1β, IFN-β (Biolgened), and IL-10 (BD) were measured according to the manufacturer's protocol.

IL-17a mRNA = assay: Real-time PCR of IL-17a mRNA (placenta/decidua mononuclear cells, fetal brain); assay type: cell-based, mouse
IL-10 = IL-10 ELISA of maternal serum and placenta/decidua extracts; assay type: in vivo, mouse; settings: poly(I:C) at E12.5
Method: as §1

IL-1β = IL-1β ELISA of maternal serum; assay type: in vivo, mouse; settings: poly(I:C) at E12.5, 3 h, vs PBS
Method: as §2

[3] = test system: cortex of the fetal brain; assay: Cortical development: SATB2/TBR1/CTIP2 immunohistochemistry of fetal and adult offspring brain; assay type: in vivo, mouse; settings: offspring of MIA vs PBS-treated mothers
TNF-α = TNF-α ELISA of maternal serum; assay type: in vivo, mouse; settings: poly(I:C) at E12.5, 3 h, vs PBS
Method: as §2

IFN-β = IFN-β ELISA of maternal serum; assay type: in vivo, mouse; settings: poly(I:C) at E12.5, 3 h, vs PBS
Method: as §2

poly(I:C)
serum IL-6 (IL-6): strong induction | IL-17a secretion by placenta/decidua-associated mononuclear cells (IL-17a [1]; cells from poly(I:C)-treated dams, ex vivo PMA and ionomycin): increased IL-17a secretion; also recorded: enhanced secretion of IL-17a | IL-17a secretion by small intestine mononuclear cells (IL-17a [1]; cells from poly(I:C)-treated pregnant dams): did not exhibit higher levels of IL-17a secretion; also recorded: did not secrete more IL-17a | IL-17a in placenta/decidua extracts (IL-17a [2]; PBS- or poly(I:C)-treated mothers): could not be detected | time until serum IL-17a is detected after injection (IL-17a [2]; poly(I:C) at E12.5): 2 to 3 days | maternal serum IL-17a (IL-17a [2]; poly(I:C) at E12.5): strong increase | maternal serum IL-17a (IL-17a [2]; poly(I:C) at E12.5, listed as Poly(I:C)): further increase | serum IL-17a at later embryonic stages (IL-17a [2]; poly(I:C) injected mothers): continue to rise until E19.5 | serum IL-17a at E14.5 (IL-17a [2]; poly(I:C) into pregnant dams lacking IL-6 (IL-6 KO)): failed to increase | placenta/decidua-associated Th17 cells (Th17 cells): increased | IL-17a mRNA in placenta- and decidua-associated mononuclear cells (IL-17a mRNA; isolated at E14.5, cultured 24 h): strongly up-regulated | IL-17a mRNA in fetal brain at E14.5 (IL-17a mRNA; regardless of poly(I:C) injection): not detected | IL-10 in serum and placenta/decidua extracts (IL-10): not affected; also recorded: did not affect | serum IL-1β (IL-1β): strong induction | cortical organization by Golgi staining [3]: disorganized cortical regions | serum TNF-α (TNF-α): strong induction | serum IFN-β (IFN-β): strong induction

B1: recombinant IL-6: carrier-free recombinant mouse IL-6 (R&D) (protein, UniProt P08505 25-211, looked up)
Interleukin-6: FPTSQVRRGDFTEDTTPNRPVYTTSQVGGLITHVLWEIVEMRKELCNGNSDCMNNDDALAENNLKLPEIQRNDGCYQTGYNQEICLLKISSGLLEYHSYLEYMKNNLKDNKKDKARVLQRDTETLIHIFNQEVKDLHKIVLPTPISNALLTDKLESQKEWLRTKTIQFILKSLEEFLKVTLRSTRQT
maternal serum IL-17a at E14.5 (IL-17a [2]; injection into wild-type (WT) mothers): sufficient to induce IL-17a levels comparable to those of poly(I:C)-injected WT mothers
